Where “and” joins values, the source holds several entries; their conditions need not be identical. Identical values can stand only once. Inconclusive results and toxic doses are left out. How the source made its calls: active means survival T/C of 150% or more; inactive means T/C below 125% in these data.
Tested on: P388 leukemia ip, CD2F1 mice, survival T/C
Experiment: NCI In Vivo Anticancer Drug Screen. Data for tumor model P388 Leukemia (intraperitoneal) in CD2F1 (CDF1) mice
Conditions: endpoint: median survival time, higher = longer survival
Outline: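 Mice carrying the transplanted tumor received test compound or vehicle. Survival was recorded in each group, and the value is the treated-group measurement divided by that of the vehicle-treated control group.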

[1] = dose: 100.0 mg/kg/injection, schedule: Q04DX003 (ip), vehicle: saline with Tween-80
[2] = dose: 200.0 mg/kg/injection, schedule: Q04DX003 (ip), vehicle: saline with Tween-80
[3] = dose: 400.0 mg/kg/injection, schedule: Q04DX003 (ip), vehicle: saline with Tween-80
[4] = dose: 100.0 mg/kg/injection, schedule: Q01DX009 (ip), vehicle: saline with Tween-80
[5] = dose: 200.0 mg/kg/injection, schedule: Q01DX009 (ip), vehicle: saline with Tween-80
[6] = dose: 50.0 mg/kg/injection, schedule: Q01DX009 (ip), vehicle: Klucel (hydroxypropylcellulose) (HPC)
[7] = dose: 100.0 mg/kg/injection, schedule: Q01DX009 (ip), vehicle: Klucel (hydroxypropylcellulose) (HPC)
[8] = dose: 200.0 mg/kg/injection, schedule: Q01DX009 (ip), vehicle: Klucel (hydroxypropylcellulose) (HPC)
[9] = dose: 50.0 mg/kg/injection, schedule: Q01DX005 (ip), vehicle: saline with Tween-80
[10] = dose: 100.0 mg/kg/injection, schedule: Q01DX005 (ip), vehicle: saline with Tween-80
[11] = dose: 200.0 mg/kg/injection, schedule: Q01DX005 (ip), vehicle: saline with Tween-80
[12] = dose: 60.0 mg/kg/injection, schedule: Q01DX005 (ip), vehicle: Klucel (hydroxypropylcellulose) (HPC)
[13] = dose: 120.0 mg/kg/injection, schedule: Q01DX005 (ip), vehicle: Klucel (hydroxypropylcellulose) (HPC)

Measured: T/C

CC(C)C(Br)C(=O)NCC(=O)O (configuration not stated)
inactive: [1] 100 % of control | [2] 95 % of control | [3] 100 % of control

CC(C)C(O)C1CCOS1(=O)=O (configuration not stated)
inactive: dose: 100.0 mg/kg/injection, schedule: Q04DX003 (ip), vehicle: saline 95 % of control | dose: 200.0 mg/kg/injection, schedule: Q04DX003 (ip), vehicle: saline 101 % of control

CCN(CC)Cc1cc(C)c(O)c(N=Nc2cc(OC)c(N=Nc3ccc([N+](=O)[O-])cc3)cc2OC)c1C
inactive: [1] 91 % of control | [2] 94 % of control | [3] 94 % of control

O=C(O)/C=C/c1csc(-c2ccc(Cl)cc2)n1
inactive: dose: 50.0 mg/kg/injection, schedule: Q01DX009 (ip), vehicle: saline with Tween-80 88 % of control | [4] 88 % of control | [5] 106 % of control

COC1OC(CO)C2OC(C)(C)OC12 (configuration not stated)
inactive: dose: 50.0 mg/kg/injection, schedule: Q01DX005 (ip), vehicle: suspension in saline 101 % of control | dose: 100.0 mg/kg/injection, schedule: Q01DX005 (ip), vehicle: suspension in saline 106 % of control | dose: 200.0 mg/kg/injection, schedule: Q01DX005 (ip), vehicle: suspension in saline 101 % of control

O=C1CCc2nc3ccccc3c(=O)n21
inactive: [6] 96 % of control | [7] 96 % of control | [8] 94 % of control | dose: 400.0 mg/kg/injection, schedule: Q01DX009 (ip), vehicle: Klucel (hydroxypropylcellulose) (HPC) 100 % of control

C=C1C[C@@H](C2OC3OC(C)(C)OC3C2OCc2ccccc2)OC1=O (some centres not stated)
inactive: [9] 116 % of control | [10] 124 % of control

C=CCC1=CC2(OC)C(=O)C(OC)(OC)C1C1C(OC)(OC)C(=O)C(OC)=CC12CC=C (configuration not stated)
inactive: dose: 18.75 mg/kg/injection, schedule: Q01DX009 (ip), vehicle: Klucel (hydroxypropylcellulose) (HPC) 114 % of control and 93 % of control | dose: 37.5 mg/kg/injection, schedule: Q01DX009 (ip), vehicle: Klucel (hydroxypropylcellulose) (HPC) 99 % of control | dose: 75.0 mg/kg/injection, schedule: Q01DX009 (ip), vehicle: Klucel (hydroxypropylcellulose) (HPC) 102 % of control and 112 % of control | dose: 150.0 mg/kg/injection, schedule: Q01DX009 (ip), vehicle: Klucel (hydroxypropylcellulose) (HPC) 94 % of control | [8] 94 % of control

CC(Cc1ccccc1)N(C)C(=O)c1ccc[n+](C)c1 (configuration not stated)
inactive: dose: 50.0 mg/kg/injection, schedule: Q01DX005 (ip), vehicle: saline 107 % of control | dose: 100.0 mg/kg/injection, schedule: Q01DX005 (ip), vehicle: saline 109 % of control

COc1ccc2c(c1[N+](=O)[O-])CCCC(Br)(Br)C2=O
inactive: [6] 107 % of control | [7] 107 % of control | [8] 108 % of control

C=C1CC2(CC3CC2C2CCCC32)OC1=O (configuration not stated)
inactive: dose: 100.0 mg/kg/injection, schedule: Q04DX002 (ip), vehicle: saline 100 % of control | dose: 200.0 mg/kg/injection, schedule: Q04DX002 (ip), vehicle: saline 94 % of control | dose: 400.0 mg/kg/injection, schedule: Q04DX002 (ip), vehicle: saline 98 % of control

NC(CCl)=NCC12CC3CC(CC(C3)C1)C2
inactive: dose: 12.5 mg/kg/injection, schedule: Q01DX009 (ip), vehicle: Klucel (hydroxypropylcellulose) (HPC) 90 % of control

CC(C)C(NC(=O)OCc1ccccc1)C(=O)NC(Cc1c[nH]c2ccccc12)C(=O)O (configuration not stated)
inactive: [9] 99 % of control | [10] 99 % of control | [11] 95 % of control

CCOC(=O)CN1CN(CCCN(C)C)CC(C)(C)C1OCC (configuration not stated)
inactive: dose: 15.0 mg/kg/injection, schedule: Q01DX009 (ip), vehicle: saline with Tween-80 108 % of control | dose: 30.0 mg/kg/injection, schedule: Q01DX009 (ip), vehicle: saline with Tween-80 98 % of control | dose: 60.0 mg/kg/injection, schedule: Q01DX009 (ip), vehicle: saline with Tween-80 99 % of control

CCOC1(C)OC2OC(COCc3ccccc3)C(OCc3ccccc3)C(OCc3ccccc3)C2O1 (configuration not stated)
inactive: dose: 12.5 mg/kg/injection, schedule: Q01DX009 (ip), vehicle: other 99 % of control | dose: 25.0 mg/kg/injection, schedule: Q01DX009 (ip), vehicle: other 100 % of control | dose: 50.0 mg/kg/injection, schedule: Q01DX009 (ip), vehicle: other 100 % of control | dose: 100.0 mg/kg/injection, schedule: Q01DX009 (ip), vehicle: other 89 % of control | dose: 200.0 mg/kg/injection, schedule: Q01DX009 (ip), vehicle: other 98 % of control

CCOc1c(Cc2ccccc2)c(=O)nc2c(-c3ccccc3)cncn12
inactive: dose: 30.0 mg/kg/injection, schedule: Q01DX005 (ip), vehicle: saline with Tween-80 101 % of control | dose: 60.0 mg/kg/injection, schedule: Q01DX005 (ip), vehicle: saline with Tween-80 86 % of control and 90 % of control | dose: 120.0 mg/kg/injection, schedule: Q01DX005 (ip), vehicle: saline with Tween-80 92 % of control | dose: 240.0 mg/kg/injection, schedule: Q01DX005 (ip), vehicle: saline with Tween-80 87 % of control

CP1(=S)CCC(=O)C1 (configuration not stated)
inactive: dose: 50.0 mg/kg/injection, schedule: Q01DX009 (ip), vehicle: saline 101 % of control | dose: 100.0 mg/kg/injection, schedule: Q01DX009 (ip), vehicle: saline 101 % of control | dose: 200.0 mg/kg/injection, schedule: Q01DX009 (ip), vehicle: saline 103 % of control

CN(C)C1c2cc3ccccc3nc2-c2ccccc2C1(C)C (configuration not stated)
inactive: dose: 12.5 mg/kg/injection, schedule: Q01DX005 (ip), vehicle: saline with Tween-80 95 % of control | dose: 25.0 mg/kg/injection, schedule: Q01DX005 (ip), vehicle: saline with Tween-80 95 % of control | [9] 100 % of control and 101 % of control | [11] 97 % of control

Cc1cc2c(c(O)c1O)/C(=C/N=NC(N)=S)C(Cl)=N2
inactive: dose: 100.0 mg/kg/injection, schedule: Q01DX001 (ip), vehicle: Klucel (hydroxypropylcellulose) (HPC) 101 % of control | dose: 200.0 mg/kg/injection, schedule: Q01DX001 (ip), vehicle: Klucel (hydroxypropylcellulose) (HPC) 102 % of control | dose: 400.0 mg/kg/injection, schedule: Q01DX001 (ip), vehicle: Klucel (hydroxypropylcellulose) (HPC) 100 % of control

ClC(Cl)(Cl)C1OCCOCCO1
inactive: [4] 109 % of control | [5] 100 % of control | dose: 400.0 mg/kg/injection, schedule: Q01DX009 (ip), vehicle: saline with Tween-80 116 % of control

CCCN(CCC)C(=O)[S-].CCCN(CCC)C(=O)[S-].[Ni+2]
inactive: dose: 12.5 mg/kg/injection, schedule: Q01DX009 (ip), vehicle: saline with Tween-80 90 % of control | dose: 25.0 mg/kg/injection, schedule: Q01DX009 (ip), vehicle: saline with Tween-80 109 % of control

CCN1c2ccccc2SC1CC1=C(O)C(CC2Sc3ccccc3N2CC)=C1O (configuration not stated)
inactive: [12] 91 % of control | [13] 96 % of control | dose: 240.0 mg/kg/injection, schedule: Q01DX005 (ip), vehicle: Klucel (hydroxypropylcellulose) (HPC) 89 % of control

Cc1ccc(S(=O)(=O)N2C(=O)CCC2=O)cc1
inactive: dose: 100.0 mg/kg/injection, schedule: Q04DX003 (ip), vehicle: Klucel (hydroxypropylcellulose) (HPC) 106 % of control | [1] 105 % of control | dose: 200.0 mg/kg/injection, schedule: Q04DX003 (ip), vehicle: Klucel (hydroxypropylcellulose) (HPC) 120 % of control | [2] 100 % of control | [3] 110 % of control

COc1ccc(CCN2C(=O)C(=O)N(C3CCCCC3)C2=O)cc1OC
inactive: [6] 93 % of control | [7] 95 % of control | [8] 100 % of control

O=Cc1cc(C=O)c2ccc(=O)[nH]c2n1
inactive: [12] 109 % of control | [13] 114 % of control

Reference: PubChem BioAssay AID330 (DTP/NCI, 2004)
